Data taken from US20090233942A1, “Genetic markers associated with response to antidepressants” (priority 2008, published 2009).

Test system: adult patients diagnosed with MDD
Test: Eight-week randomized, double-blind, placebo-controlled study: association of sequenced gene markers (Tables 1-17) with vilazodone response as change of MADRS
Format: in vivo, human
Conditions: mean MADRS decrease
Description: There was a wide range of inter-individual variability in response to vilazodone as well as to placebo and the active comparators. This variability may be partially due to genetic differences among the individuals treated. This example illustrates a randomized, double-blind, placebo-controlled, multicenter, eight-week study designed to discover genetic markers of response to vilazodone in adult patients diagnosed with MDD by the DSM-IV-TR criteria. Patients must have met all of the following inclusion criteria to be considered for enrollment in the study: (1) 18-65 years of age; (2) diagnosis of MDD, single episode or recurrent, according to DSM-IV-TR (296.2/296.3) with a current Major Depressive Episode of less than one year's duration with a minimum duration of at least 4 weeks; (3) HAM-D score≧22 on the first 17 items of the 21-item HAM-D at screening and baseline visits; (4) HAM-D item 1 (depressed mood) score≧2 at the screening visit and the baseline visit; (5) provision of written informed consent to participate; and (6) ability to speak, read and understand English and to respond to questions and follow simple instructions.
Following randomization into vilazodone and placebo groups, patients began the forced titration schedule. Patients received 10 mg qd until Visit 3 (approximately Day 7). At Visit 3 patients received 20 mg qd until Visit 4 (approximately Day 14). At Visit 4 patients received the target dose of 40 mg qd (approximately Day 15). A total of 152 patients completed the vilazodone arm, while 154 patients completed the placebo arm.
This example illustrates genotyping of the study group for the ACE, ATP5C3, BCL2L1, CYP2C9, DRD3, FOS, DTNBP1, GABRG3, GRIA4, LAMA4, MAPK1, NPY1R, OPRD1, OPRM1, PER3, PLCB1, and PSMD1 polymorphic sites selected by the inventors herein for analysis. Genomic DNA was isolated from blood obtained from each individual and amplified target regions containing the polymorphic sites in Tables A-21 to A-37 (Appendix A) were sequenced to determine the genotypes at these polymorphic sites. Tailed (Universal M13 Forward and Reverse) PCR primers were designed using the sequence of SEQ ID NO:1 for ACE, SEQ ID NO:2 for ATP5C3, SEQ ID NO:3 for BCL2L1, SEQ ID NO:4 for CYP2C9, SEQ ID NO:5 for DRD3, SEQ ID NO:6 for FOS, SEQ ID NO:7 for DTNBP1, SEQ ID NO:8 for GABRG3, SEQ ID NO:9 for GRIA4, SEQ ID NO:10 for LAMA4, SEQ ID NO:11 for MAPK1, SEQ ID NO:12 for NPY1R, SEQ ID NO:13 for OPRD1, SEQ ID NO:14 for OPRM1, SEQ ID NO:15 for PER3, SEQ ID NO:16 for PLCB1, and SEQ ID NO:17 for PSMD1. Amplified PCR products were sequenced using Applied Biosystems' Big Dye® Terminator v 3.1 cycle sequencing kit according to manufacturer's instructions. The reaction products were then electrophoresed using an Applied Biosystems 3700 or 3730xl DNA analyzer. Polymorphisms were identified using the Polyphred program, and confirmed by visual inspection.
Haplotypes were estimated from the unphased genotypes using a computer-implemented algorithm for assigning haplotypes to unrelated individuals in a population sample, essentially as described in WO 01/80156. In this method, haplotypes are assigned directly from individuals who are homozygous at all sites or heterozygous at no more than one of the variable sites. This list of haplotypes is then used to deconvolute the unphased genotypes in the remaining (multiply heterozygous) individuals.
This example illustrates analysis of the markers in Tables A-1 to A-17 (Appendix A) for association with vilazodone response. A proprietary algorithm was used as a tool for finding associations between markers and outcomes. The clinical outcomes were improvement in disease over eight weeks of treatment with vilazodone as measured by the MADRS scale. A linear model was first fitted on the covariates, which were treatment center, race, ethnicity, and baseline values. […]

[1] = PLCB1 marker 54, carriers vs non-carriers
[2] = PLCB1 marker 55, carriers vs non-carriers
[3] = PLCB1 marker 56, carriers vs non-carriers
[4] = PLCB1 marker 57, carriers vs non-carriers
[5] = PLCB1 marker 58, carriers vs non-carriers
[6] = PLCB1 marker 59, carriers vs non-carriers
[7] = PLCB1 marker 60, carriers vs non-carriers
[8] = PLCB1 marker 61, carriers vs non-carriers
[9] = PLCB1 marker 62, carriers vs non-carriers
[10] = PLCB1 marker 63, carriers vs non-carriers
[11] = PLCB1 marker 64, carriers vs non-carriers
[12] = PLCB1 marker 65, carriers vs non-carriers
[13] = PLCB1 marker 66, carriers vs non-carriers
[14] = PLCB1 marker 67, carriers vs non-carriers
[15] = PLCB1 marker 68, carriers vs non-carriers
[16] = PLCB1 marker 96, carriers vs non-carriers
[17] = PLCB1 marker 97, carriers vs non-carriers
[18] = PLCB1 marker 98, carriers vs non-carriers
[19] = PLCB1 marker 99, carriers vs non-carriers
[20] = PLCB1 marker 100, carriers vs non-carriers
[21] = PLCB1 marker 101, carriers vs non-carriers
[22] = PLCB1 marker 102, carriers vs non-carriers
[23] = PLCB1 marker 103, carriers vs non-carriers
[24] = PLCB1 marker 104, carriers vs non-carriers
[25] = PLCB1 marker 105, carriers vs non-carriers
[26] = PLCB1 marker 106, carriers vs non-carriers
[27] = PLCB1 marker 107, carriers vs non-carriers
[28] = PLCB1 marker 108, carriers vs non-carriers
[29] = PLCB1 marker 109, carriers vs non-carriers
[30] = PLCB1 marker 110, carriers vs non-carriers
[31] = PLCB1 marker 111, carriers vs non-carriers
[32] = PLCB1 marker 112, carriers vs non-carriers
[33] = PLCB1 marker 113, carriers vs non-carriers
[34] = PLCB1 marker 114, carriers vs non-carriers
[35] = PLCB1 marker 115, carriers vs non-carriers
[36] = PLCB1 marker 116, carriers vs non-carriers
[37] = PLCB1 marker 117, carriers vs non-carriers
[38] = PLCB1 marker 118, carriers vs non-carriers
[39] = PLCB1 marker 119, carriers vs non-carriers
[40] = PLCB1 marker 120, carriers vs non-carriers
[41] = PLCB1 marker 121, carriers vs non-carriers
[42] = PLCB1 marker 122, carriers vs non-carriers
[43] = PLCB1 marker 123, carriers vs non-carriers
[44] = PLCB1 marker 124, carriers vs non-carriers
[45] = PLCB1 marker 125, carriers vs non-carriers
[46] = PLCB1 marker 126, carriers vs non-carriers
[47] = PLCB1 marker 127, carriers vs non-carriers
[48] = PLCB1 marker 128, carriers vs non-carriers
[49] = PLCB1 marker 129, carriers vs non-carriers
[50] = PLCB1 marker 130, carriers vs non-carriers

Compound: Cl.N#Cc1ccc2[nH]cc(CCCCN3CCN(c4ccc5oc(C(N)=O)cc5c4)CC3)c2c1 [Vilazodone, 5-{4-[4-(5-Cyano-3-indolyl)-butyl]-1-piperazinyl}-benzofuran-2-carboxamide hydrochloride]
- Response difference (Cauc. only) [1]: −6.6
- Response difference (all ethnic.) [1]: −5.1
- Response difference (Cauc. only) [2]: −5.9
- Response difference (all ethnic.) [2]: −4.3
- Response difference (Cauc. only) [3]: −6
- Response difference (all ethnic.) [3]: −4.3
- Response difference (Cauc. only) [4]: −6
- Response difference (all ethnic.) [4]: −4.3
- Response difference (Cauc. only) [5]: −5.4
- Response difference (all ethnic.) [5]: −3.9
- Response difference (Cauc. only) [6]: −6.4
- Response difference (all ethnic.) [6]: −5.1
- Response difference (Cauc. only) [7]: −5.8
- Response difference (all ethnic.) [7]: −4.6
- Response difference (Cauc. only) [8]: −6.4
- Response difference (all ethnic.) [8]: −5.2
- Response difference (Cauc. only) [9]: −7
- Response difference (all ethnic.) [9]: −5.6
- Response difference (Cauc. only) [10]: −7
- Response difference (all ethnic.) [10]: −5.6
- Response difference (Cauc. only) [11]: −7
- Response difference (all ethnic.) [11]: −5.6
- Response difference (Cauc. only) [12]: −7
- Response difference (all ethnic.) [12]: −5.6
- Response difference (Cauc. only) [13]: −7
- Response difference (all ethnic.) [13]: −5.6
- Response difference (Cauc. only) [14]: −7
- Response difference (all ethnic.) [14]: −5.6
- Response difference (Cauc. only) [15]: −7
- Response difference (all ethnic.) [15]: −5.6
- Response difference (Cauc. only) [16]: −7.3
- Response difference (all ethnic.) [16]: −4.2
- Response difference (Cauc. only) [17]: −7.3
- Response difference (all ethnic.) [17]: −4.2
- Response difference (Cauc. only) [18]: −7.3
- Response difference (all ethnic.) [18]: −4.2
- Response difference (Cauc. only) [19]: −7.3
- Response difference (all ethnic.) [19]: −4.2
- Response difference (Cauc. only) [20]: −7.3
- Response difference (all ethnic.) [20]: −4.2
- Response difference (Cauc. only) [21]: −6
- Response difference (all ethnic.) [21]: −4.7
- Response difference (Cauc. only) [22]: −6
- Response difference (all ethnic.) [22]: −4.7
- Response difference (Cauc. only) [23]: −6.6
- Response difference (all ethnic.) [23]: −4.6
- Response difference (Cauc. only) [24]: −6.6
- Response difference (all ethnic.) [24]: −4.6
- Response difference (Cauc. only) [25]: −6.6
- Response difference (all ethnic.) [25]: −4.6
- Response difference (Cauc. only) [26]: −6.6
- Response difference (all ethnic.) [26]: −4.6
- Response difference (Cauc. only) [27]: −6.6
- Response difference (all ethnic.) [27]: −4.6
- Response difference (Cauc. only) [28]: −6.6
- Response difference (all ethnic.) [28]: −4.6
- Response difference (Cauc. only) [29]: −6.6
- Response difference (all ethnic.) [29]: −4.6
- Response difference (Cauc. only) [30]: −6.7
- Response difference (all ethnic.) [30]: −4.7
- Response difference (Cauc. only) [31]: −6.7
- Response difference (all ethnic.) [31]: −4.7
- Response difference (Cauc. only) [32]: −6.7
- Response difference (all ethnic.) [32]: −4.7
- Response difference (Cauc. only) [33]: −6.7
- Response difference (all ethnic.) [33]: −4.7
- Response difference (Cauc. only) [34]: −6.7
- Response difference (all ethnic.) [34]: −4.7
- Response difference (Cauc. only) [35]: −6.7
- Response difference (all ethnic.) [35]: −4.7
- Response difference (Cauc. only) [36]: −6.7
- Response difference (all ethnic.) [36]: −4.7
- Response difference (Cauc. only) [37]: −6.7
- Response difference (all ethnic.) [37]: −4.7
- Response difference (Cauc. only) [38]: −6.7
- Response difference (all ethnic.) [38]: −4.7
- Response difference (Cauc. only) [39]: −6.7
- Response difference (all ethnic.) [39]: −4.7
- Response difference (Cauc. only) [40]: −6.7
- Response difference (all ethnic.) [40]: −4.7
- Response difference (Cauc. only) [41]: −6.7
- Response difference (all ethnic.) [41]: −4.7
- Response difference (Cauc. only) [42]: −6.7
- Response difference (all ethnic.) [42]: −4.7
- Response difference (Cauc. only) [43]: −6.7
- Response difference (all ethnic.) [43]: −4.7
- Response difference (Cauc. only) [44]: −5.9
- Response difference (all ethnic.) [44]: −4.2
- Response difference (Cauc. only) [45]: −5.9
- Response difference (all ethnic.) [45]: −4.2
- Response difference (Cauc. only) [46]: −5.9
- Response difference (all ethnic.) [46]: −4.2
- Response difference (Cauc. only) [47]: −5.9
- Response difference (all ethnic.) [47]: −4.2
- Response difference (Cauc. only) [48]: −5.9
- Response difference (all ethnic.) [48]: −4.2
- Response difference (Cauc. only) [49]: −5.9
- Response difference (all ethnic.) [49]: −4.2
- Response difference (Cauc. only) [50]: −5.9
- Response difference (all ethnic.) [50]: −4.2
